The subject of one data set is Staphylococcus aureus. Put plainly: Antimicrobial activity against Staphylococcus aureus ATCC 25923 by broth microdilution method. In kind it is functional. (In general: Dilution methods test growth across graded concentrations, often in twofold steps.)
Another data set deals with Pseudomonas aeruginosa. Put plainly: Antimicrobial activity against Pseudomonas aeruginosa PAO1 H103 by broth microdilution method. In kind it is functional.
The nature of data set [1]: Half life in mouse serum. In kind it is ADME, cell-free.

Values after ≈ are worked out from the molar mass of the structure shown.

For `CC[C@H](C)[C@H](NC(=O)[C@H](CCCNC(=N)N)NC(=O)[C@H](Cc1c[nH]c2ccccc12)NC(=O)[C@H](CCCNC(=N)N)NC(=O)[C@H](CCCNC(=N)N)NC(=O)[C@@H](C)N)C(=O)N[C@H](C(=O)N[C@H](C(=O)N[C@H](C(=O)N[C@@H](CCCNC(=N)N)C(=O)N[C@H](C(=O)N[C@@H](CCCNC(=N)N)C(=O)N[C@@H](CCCNC(=N)N)C(=O)N[C@H](Cc1cnc[nH]1)C(N)=O)C(C)C)[C@@H](C)CC)C(C)C)C(C)C`, the MIC (in general, the smallest concentration in the dilution series that meets the test's criterion for growth inhibition) with Staphylococcus aureus amounted to 1 µg/mL (≈ 0.534 µM); in the data set with Pseudomonas aeruginosa, 2 µg/mL (≈ 1.07 µM).

In the case of `CC[C@H](C)[C@H](NC(=O)[C@H](CNC(=N)N)NC(=O)[C@H](Cc1c[nH]c2ccccc12)NC(=O)[C@H](CNC(=N)N)NC(=O)[C@H](CNC(=N)N)NC(=O)[C@@H](C)N)C(=O)N[C@H](C(=O)N[C@H](C(=O)N[C@H](C(=O)N[C@@H](CNC(=N)N)C(=O)N[C@H](C(=O)N[C@@H](CNC(=N)N)C(=O)N[C@@H](CNC(=N)N)C(=O)N[C@H](Cc1cnc[nH]1)C(N)=O)C(C)C)[C@@H](C)CC)C(C)C)C(C)C`, the MIC in the data set with Staphylococcus aureus turned out to be 1 µg/mL (≈ 0.587 µM); against Pseudomonas aeruginosa it was 2 µg/mL (≈ 1.17 µM).

Regarding H-RRWRIVVIRVRR-NH2, the MIC with Staphylococcus aureus was 1 µg/mL; against Pseudomonas aeruginosa, 2 µg/mL. For the same compound, the half-life (in general, the time in which the quantity being followed falls by half) in data set [1] was 1 h.
